From patent US20240308992A1 (Biopolar Youtang(Guangdong) Pharmaceutical Co., Ltd., priority 2021, published 2024)

Biological target: T1, Drak2 (Homo sapiens, UniProt O94768)
T1 sequence (O94768 1-372): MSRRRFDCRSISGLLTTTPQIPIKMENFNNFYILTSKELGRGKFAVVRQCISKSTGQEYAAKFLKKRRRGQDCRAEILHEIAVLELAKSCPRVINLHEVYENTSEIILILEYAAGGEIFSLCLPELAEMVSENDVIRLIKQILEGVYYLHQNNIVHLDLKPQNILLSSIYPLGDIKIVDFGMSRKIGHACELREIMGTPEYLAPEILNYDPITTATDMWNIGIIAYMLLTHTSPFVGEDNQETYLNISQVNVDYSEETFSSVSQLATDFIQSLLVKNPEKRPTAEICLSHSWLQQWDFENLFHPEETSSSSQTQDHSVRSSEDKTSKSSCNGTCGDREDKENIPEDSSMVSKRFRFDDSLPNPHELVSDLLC
Test: Drak2 activity test, ADP-Glo kinase assay (Promega)
Type: biochemical
Conditions: inhibition of Drak2 kinase activity, 2 h room temperature, activity range classes, read-out: IC50_Drak2

SMILES	IC50 [nM]
CCCCC(=O)Nc1csc(-c2ccnc(-c3ccc(C(=O)N(C)C4CCN(C)CC4)c(OC)c3)n2)c1 [Example D5, 2-methoxy-N-methyl-N-(1-methylpiperidin-4-yl)-4-(4-(4-pentanamidothiophen-2-yl)pyrimidin-2-yl)benzamide]	1000 to 10000
CCCCC(=O)Nc1csc(-c2cncc(N3CCN(S(C)(=O)=O)CC3)n2)c1 [Example D6, N-(5-(6-(4-(methylsulfonyl)piperazin-1-yl)pyrazin-2-yl)thiophen-3-yl)pentanamide]	101 to 1000
CCCCC(=O)Nc1csc(-c2cncc(C3CCN(S(C)(=O)=O)CC3)n2)c1 [Example D7, N-(5-(6-(1-(methylsulfonyl)piperidin-4-yl)pyrazin-2-yl)thiophen-3-yl)pentanamide]	1000 to 10000
CCCCC(=O)Nc1csc(-c2cncc(C3=CCN(S(C)(=O)=O)CC3)n2)c1 [Example D8, N-(5-(6-(1-(methylsulfonyl)-1,2,3,6-tetrahydropyridin-4-yl)pyrazin-2-yl)thiophen-3-yl)pentanamide]	1000 to 10000
CN1CCC(C(=O)N2CCOc3cc(-c4cncc(-c5cc(NC(=O)CC6CCC6)cs5)n4)ccc32)CC1 [Example E1, 2-cyclobutyl-N-(5-(6-(4-(1-methylpiperidine-4-carbonyl)-3,4-dihydro-2H-benzo[b][1,4]oxazin-7-yl)pyrazin-2-yl)thiophen-3-yl)acetamide]	11 to 100
CN1CCC(C(=O)N2CCOc3cc(-c4cncc(-c5cc(NC(=O)CC6CC6)cs5)n4)ccc32)CC1 [Example E2, 2-cyclopropyl-N-(5-(6-(4-(1-methylpiperidin-4-carbonyl)-3,4-dihydro-2H-benzo[b][1,4]oxazin-7-yl)pyrazine-2-yl)thiophene-3-yl) acetamide]	11 to 100
COc1cc(-c2cncc(-c3cc(NC(=O)NC4CCC4)cs3)n2)ccc1C(=O)N(C)C1CCN(C)CC1 [Example F1, 4-(6-(4-(3-cyclobutylurea)thiophen-2-yl)pyrazin-2-yl)-2-methoxy-N-methyl-N-(1-methylpiperidin-4-yl) benzamide]	11 to 100
COc1cc(-c2cncc(-c3cc(OCC[C@H](C)CN)cs3)n2)ccc1C(=O)N(C)C1CCN(C)CC1 [Example G1, (S)-4-(6-(4-(4-amino-3-methylbutoxy)thiophen-2-yl)pyrazin-2-yl)-2-methoxy-N-methyl-N-(1-methylpiperidin-4-yl) benzamide]	101 to 1000
